EC50 and IC50 data for one compound are collected here from patent US6399654B1, “Biflavanoids and derivatives thereof as antiviral agents” (priority 1995, dated 2002).

In data set [1] the test system is Influenza A (H1N1) Texas/36/91. In words: microbe, parasite or virus in culture. The following applies: Influenza A virus, MDCK; Influenza A (H1N1) Texas/36/91; read-out: CPE Inhibition EC50. Format: cell-based, influenza A virus.
Data set [2] relates to Influenza A (H1N1) Texas/36/91. Put plainly: microbe, parasite or virus in culture. Format: cell-based, influenza A virus. The following applies: Influenza A virus, MDCK; Influenza A (H1N1) Texas/36/91; read-out: Neutral Red EC50.
Data set [3] is described as follows: Cytotoxicity by neutral red dye uptake, A549 cells. As to conditions: human.
In data set [4] the test system is Influenza B Panama/45/90. Put plainly: microbe, parasite or virus in culture. Format: cell-based. The following applies: Influenza B virus, MDCK, read-out: Neutral Red EC50.

SMILES strings stand for the structures. Values after ≈ are worked out from the molar mass of the structure shown. Where two headings read alike, the source gives them in different places.

By EC50 is commonly meant the concentration needed to bring the measured effect to its halfway point. As usually defined, the IC50 is the midpoint of a concentration-inhibition curve. Low readings indicate higher potency, high ones lower potency. Regarding `O=c1cc(-c2ccc(O)c(-c3c(O)cc4oc(-c5ccc(O)cc5)cc(=O)c4c3O)c2)oc2cc(O)cc(O)c12` [Robustaflavone (3), robustaflavone], the results for the half-maximal effective concentration (EC50) in data set [1], in data set [2] and in data set [4] were 1.9 µg/mL (≈ 3.53 µM), 2 µg/mL (≈ 3.71 µM) and 0.22 µg/mL (≈ 0.409 µM), respectively. The midpoint of inhibition in data set [3], the IC50, lay at 102 µg/mL (≈ 189 µM).
